Results taken from PMC9863657, “A Tailored Strategy to Crosslink the Aspartate Transcarbamoylase Domain of the Multienzymatic Protein CAD” (Molecules, 2023).
Blank lines part the entries; values can stand above or below the molecule they belong to.

Legend:
[1] = target: T1, ctATC (ATC domain of C. thermophilum CAD-like protein) (Thermochaetoides thermophila, UniProt G0S583, N2045C/R2238C); assay: colorimetric carbamoyl aspartate assay; format: biochemical; details: 5 mM CP; 50 mM Tris-acetate pH 8.3; 25 °C; 0.1 µM enzyme; substrate inhibition model; range printed jointly for WT and double mutant; disulfide-crosslinked trimer; read-out: S0.5^Asp
T1 construct: gene CTHT_0032600; isolated ATC domain aa 1939-2253; N-terminal His6-MBP cut with PreScission; E. coli BL21(DE3) pLysS; homotrimer, 119 kDa by SEC (ctATC2Cys, similar to WT)

[2] = target: T2, ctATC (ATC domain of C. thermophilum CAD-like protein) (Thermochaetoides thermophila, UniProt G0S583); assay: colorimetric carbamoyl aspartate assay; format: biochemical; details: 5 mM CP; 50 mM Tris-acetate pH 8.3; 25 °C; 0.1 µM enzyme; substrate inhibition model; range printed jointly for WT and double mutant; read-out: S0.5^Asp
T2 construct: gene CTHT_0032600; isolated ATC domain aa 1939-2253; N-terminal His6-MBP cut with PreScission; E. coli BL21(DE3) pLysS; homotrimer, 119 kDa by SEC (ctATC2Cys, similar to WT)

[3] = target: T1, ctATC (ATC domain of C. thermophilum CAD-like protein); assay: differential scanning fluorimetry; format: binding; details: 1 mM PALA; 5 µM protein; pH 7.0; disulfide-crosslinked trimer; Tm without PALA 73.5 °C; transition state analog
[4] = target: T2, ctATC (ATC domain of C. thermophilum CAD-like protein); assay: differential scanning fluorimetry; format: binding; details: 1 mM PALA; 5 µM protein; pH 7.0; Tm without PALA 53.9 °C; transition state analog
[5] = target: ATC domain of C. thermophilum CAD-like protein with mutations N2045C and R2238C (ctATC2Cys) (Chaetomium thermophilum); assay: crystal structure; crystals of ctATC2Cys free and with 2 mM carbamoyl phosphate (CP), space group P4(3)32, one subunit per asymmetric unit
[6] = target: ATC domain of C. thermophilum CAD-like protein with mutations N2045C and R2238C (ctATC2Cys) (Chaetomium thermophilum); assay: SEC; Superdex 200 10/300 GL in 20 mM Tris-HCl pH 8.0, 150 mM NaCl, room temperature; molecular weight estimated from calibration with standards
[7] = target: full-length C. thermophilum CAD-like protein (Chaetomium thermophilum); assay: not stated; unpublished results: recombinant full-length protein isolated as hexameric particles

T1 sequence (G0S583 entry or part of it N2045C/R2238C): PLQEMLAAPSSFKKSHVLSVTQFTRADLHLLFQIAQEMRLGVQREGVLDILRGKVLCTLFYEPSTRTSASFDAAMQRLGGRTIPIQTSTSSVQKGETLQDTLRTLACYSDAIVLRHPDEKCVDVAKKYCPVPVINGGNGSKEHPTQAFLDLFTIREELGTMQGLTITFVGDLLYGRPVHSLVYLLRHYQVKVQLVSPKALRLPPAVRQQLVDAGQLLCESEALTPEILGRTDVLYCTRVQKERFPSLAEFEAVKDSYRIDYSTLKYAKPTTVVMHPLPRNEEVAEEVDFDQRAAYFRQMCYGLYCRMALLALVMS
T2 sequence (G0S583 entry or part of it): as the sequence (G0S583 entry or part of it N2045C/R2238C) above, with C107N, C300R counted along it

Km [1]: 1500 to 2000 µM
Km [2]: 1500 to 2000 µM
Molecule: N[C@@H](CC(=O)O)C(=O)O [Asp, aspartate]

Tm [3]: ~ 90 °C
Tm [4]: ~ 90 °C
Molecule: O=C(O)C[C@H](NC(=O)CP(=O)(O)O)C(=O)O [PALA]

stoichiometry N [5]: 3
stoichiometry N [6]: 3
Molecule: ATC domain of C. thermophilum CAD-like protein with mutations N2045C and R2238C (ctATC2Cys) (domain or fragment)

stoichiometry N [7]: 6
Molecule: full-length C. thermophilum CAD-like protein (natural protein)
